From ChEMBL document CHEMBL1201862, “PubChem BioAssay data set” (2004)
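Assay format: 96-well plates, 48-hour exposure. GI50 = concentration required for 50% inhibition of growth.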 The source made the active and inactive calls. Rule as the data show it: active = GI50 up to about 1.1 µM and inactive = higher.

Key:
Test in all cases: NCI tumour cell line growth inhibition, 48 h
[1] = tested on: SK-MEL-2
[2] = tested on: DU-145
[3] = tested on: A549
[4] = tested on: MOLT-4
[5] = tested on: M14
[6] = tested on: OVCAR-8
[7] = tested on: RXF 393
[8] = tested on: HOP-92
[9] = tested on: UACC-62
[10] = tested on: 786-0
[11] = tested on: KM12
[12] = tested on: NCI-H226
[13] = tested on: RPMI-8226
[14] = tested on: SNB-19
[15] = tested on: EKVX
[16] = tested on: SNB-75
[17] = tested on: U-251
[18] = tested on: MDA-MB-435
[19] = tested on: NCI-H522
[20] = tested on: A498
[21] = tested on: HT-29
[22] = tested on: SN12C
[23] = tested on: UACC-257
[24] = tested on: HOP-62
[25] = tested on: HCT-116
[26] = tested on: SK-MEL-28
[27] = tested on: HL-60
[28] = tested on: SK-MEL-5
[29] = tested on: Malme-3M
[30] = tested on: K562
[31] = tested on: CCRF-CEM
[32] = tested on: COLO 205
[33] = tested on: NCI/ADR-RES
[34] = tested on: PC-3
[35] = tested on: CAKI-1
[36] = tested on: SW-620
[37] = tested on: LOX IMVI
[38] = tested on: NCI-H23
[39] = tested on: OVCAR-3
[40] = tested on: SF-295
[41] = tested on: OVCAR-5
[42] = tested on: MCF7
[43] = tested on: SF-539
[44] = tested on: ACHN
[45] = tested on: BT-549
[46] = tested on: SR
[47] = tested on: MDA-N
[48] = tested on: UO-31
[49] = tested on: IGROV-1
[50] = tested on: MDA-MB-231
[51] = tested on: NCI-H460
[52] = tested on: HCT-15
[53] = tested on: TK-10
[54] = tested on: OVCAR-4
[55] = tested on: Hs-578T
[56] = tested on: HCC 2998
[57] = tested on: SF-268
[58] = tested on: SK-OV-3

Compound: COc1ccc(C2=Nc3c(nc(OC)[nH]c3=O)NC(c3ccccc3)C2)cc1 (centres undefined)
- GI50 [1]: 25.7 µM (inactive)
- GI50 [2]: 42.3 µM (inactive)
- GI50 [3]: 34.4 µM (inactive)
- GI50 [4]: 38.6 µM (inactive)
- GI50 [5]: 27.3 µM (inactive)
- GI50 [6]: 21.4 µM (inactive)
- GI50 [7]: 29.7 µM (inactive)
- GI50 [8]: 32.3 µM (inactive)
- GI50 [9]: 42.8 µM (inactive)
- GI50 [10]: 27.6 µM (inactive)
- GI50 [11]: 18.2 µM (inactive)
- GI50 [12]: 36.6 µM (inactive)
- GI50 [13]: 32.7 µM (inactive)
- GI50 [14]: 30.5 µM (inactive)
- GI50 [15]: 33.9 µM (inactive)
- GI50 [16]: 12.5 µM (inactive)
- GI50 [17]: 24.8 µM (inactive)
- GI50 [18]: 33.3 µM (inactive)
- GI50 [19]: 28.7 µM (inactive)
- GI50 [20]: 32.6 µM (inactive)
- GI50 [21]: 28.4 µM (inactive)
- GI50 [22]: 23.2 µM (inactive)
- GI50 [23]: 49.9 µM (inactive)
- GI50 [24]: 41.5 µM (inactive)
- GI50 [25]: 28.4 µM (inactive)
- GI50 [26]: 19.1 µM (inactive)
- GI50 [27]: 19.3 µM (inactive)
- GI50 [28]: 18.4 µM (inactive)
- GI50 [29]: > 100 µM (inactive)
- GI50 [30]: 25.2 µM (inactive)
- GI50 [31]: 30.8 µM (inactive)
- GI50 [32]: 24.6 µM (inactive)
- GI50 [33]: 24.8 µM (inactive)
- GI50 [34]: 48 µM (inactive)
- GI50 [35]: 52 µM (inactive)
- GI50 [36]: 24.1 µM (inactive)
- GI50 [37]: 26.6 µM (inactive)
- GI50 [38]: 29.6 µM (inactive)
- GI50 [39]: 33.8 µM (inactive)
- GI50 [40]: 50 µM (inactive)
- GI50 [41]: 46.6 µM (inactive)
- GI50 [42]: 21.9 µM (inactive)
- GI50 [43]: 28.1 µM (inactive)
- GI50 [44]: 27.5 µM (inactive)
- GI50 [45]: 31 µM (inactive)
- GI50 [46]: 53.1 µM (inactive)
- GI50 [47]: 27 µM (inactive)
- GI50 [48]: 46.2 µM (inactive)
- GI50 [49]: 30.1 µM (inactive)
- GI50 [50]: 20.7 µM (inactive)

Compound: COC(=O)CCC(C)C1CCC2C3C(C[C@H](OC(C)=O)[C@]12C)[C@@]1(C)CCC2(C[C@H]1C[C@H]3OC(C)=O)OOC1(CC[C@]3(C)C4C[C@H](OC(C)=O)[C@]5(C)C(C(C)CCC(=O)OC)CCC5C4[C@H](OC(C)=O)C[C@@H]3C1)OO2 (some centres undefined)
- GI50 [1]: > 100 µM (inactive)
- GI50 [2]: 73.1 µM (inactive)
- GI50 [3]: 91.8 µM (inactive)
- GI50 [4]: 48.4 µM (inactive)
- GI50 [5]: > 100 µM (inactive)
- GI50 [6]: > 100 µM (inactive)
- GI50 [51]: 50.7 µM (inactive)
- GI50 [7]: > 100 µM (inactive)
- GI50 [10]: > 100 µM (inactive)
- GI50 [11]: > 100 µM (inactive)
- GI50 [12]: 66.8 µM (inactive)
- GI50 [52]: > 100 µM
- GI50 [13]: > 100 µM (inactive)
- GI50 [14]: > 100 µM (inactive)
- GI50 [15]: > 100 µM (inactive)
- GI50 [16]: 68.4 µM (inactive)
- GI50 [17]: 45.1 µM (inactive)
- GI50 [18]: > 100 µM (inactive)
- GI50 [19]: > 100 µM (inactive)
- GI50 [21]: > 100 µM (inactive)
- GI50 [22]: 83.2 µM (inactive)
- GI50 [23]: > 100 µM (inactive)
- GI50 [24]: > 100 µM (inactive)
- GI50 [25]: > 100 µM (inactive)
- GI50 [26]: > 100 µM (inactive)
- GI50 [27]: 38.3 µM (inactive)
- GI50 [28]: > 100 µM (inactive)
- GI50 [29]: > 100 µM (inactive)
- GI50 [30]: > 100 µM (inactive)
- GI50 [53]: > 100 µM (inactive)
- GI50 [31]: 14.8 µM (inactive)
- GI50 [32]: > 100 µM (inactive)
- GI50 [33]: > 100 µM (inactive)
- GI50 [34]: > 100 µM (inactive)
- GI50 [35]: 24 µM (inactive)
- GI50 [36]: > 100 µM (inactive)
- GI50 [37]: > 100 µM (inactive)
- GI50 [38]: 84.7 µM (inactive)
- GI50 [39]: > 100 µM (inactive)
- GI50 [40]: 78.7 µM (inactive)
- GI50 [41]: > 100 µM (inactive)
- GI50 [54]: > 100 µM (inactive)
- GI50 [42]: > 100 µM (inactive)
- GI50 [55]: > 100 µM (inactive)
- GI50 [44]: 33.5 µM (inactive)
- GI50 [56]: > 100 µM (inactive)
- GI50 [57]: 92 µM (inactive)
- GI50 [45]: 97.3 µM (inactive)
- GI50 [46]: 44.3 µM (inactive)
- GI50 [47]: > 100 µM (inactive)
- GI50 [48]: 30.9 µM (inactive)
- GI50 [49]: > 100 µM (inactive)
- GI50 [50]: > 100 µM (inactive)
- GI50 [58]: > 100 µM (inactive)
